# In patent EP2570123A1, “Use of 2,4-dichlorobenzyl alcohol having an anaesthetic effect” (Reckitt Benckiser Healthcare (UK) Limited, priority 2007, dated 2009):
# How the values were obtained:
# [1] = molecular target: T1, α-subunit of NaV1.2 neuronal sodium channels (Rattus norvegicus, UniProt P04775); test: cell-based; details: for sensitivity at -70 mV holding potential compared to hyperpolarized holding potentials: -70 mV versus -100 and/or -150 mV; for nHR: Hill coefficient, resting state binding; for blocking potency compared with lidocaine (words): block of resting channels
# Description: Stably transfected HEK 293 cell lines expressing the α-subunit of NaV1.2 neuronal sodium channels from a rat were used. The expression vector pRc/CMV (Invitrogen, San Diego, USA) was used for mammalian transfection. Transfection was performed using calcium phosphate precipitation. Permanent expression was achieved by selection for resistance to the aminoglycoside antibiotic geneticin G418 (Life Technology, Eggenstein, Germany).
# The stock solution was then dissolved directly in bath solution. The bath solution contained [mM] NaCl 140, MgCl2 1.0, KCl 4.0, CaCl2 2.0, Hepes 5.0, dextrose 5.0. Patch electrodes contained [mM] CsCl2 130, MgCl2 2.0, EGTA 5.0, Hepes 10. All solutions were adjusted to 290 mosm 1^-1 by the addition of mannitol and to pH 7.4 by the addition ofCsOH.
# Standard whole-cell voltage-clamp experiments were performed at 20°C. Each experiment consisted of test recordings with the drug present at only one concentration, and of drug-free control recordings before and after the test. Each cell was exposed to one test concentration only. At least three or five independent experiments were performed at each concentration depending on the active being tested.
# For data acquisition and further analysis, a EPC9 digitally-controlled amplifier was used in combination with Pulse and Pulse Fit software (HEKA Electronics, Lambrecht, Germany). The EPC9 provides automatic subtraction of capacitive and leakage currents by means of a prepulse protocol. The data were filtered at 10 kHz and digitized at 20 µs per point. The input resistance of the patch pipettes was 2.0-3.5 MΩ and the capacitances of the cells were 9-15 pF; the residual series resistance (after 50% compensation) was 1.2-2.5 MΩ. Experiments with a rise in series resistance were rejected. To minimize time-dependent shifts in the voltage-dependence of steady-state inactivation, all test experiments were performed within 5 min of patch rupture.
# Drug effects on the peak current amplitude were assessed at a hyperpolarized membrane potentials (-100 mV and -150mV), at a holding potential close to the normal resting potential in physiological conditions (-70 mV), and, additionally, at -100 mV in the presence of a fraction of slow inactivated channels. Slow inactivation was induced by long (2.5 s) prepulses to -90, -70, -50, -30 and -10 mV, followed by a short hyperpolarization to allow recovery from fast-inactivation. In our protocol the recovery interval was prolonged to 100 ms (instead of 10 ms originally described) in order to allow sufficient time not only for drug-free, but also for all drug-bound states to recover from fast inactivation. The residual sodium current (Inorm) in the presence of a drug (with respect to the peak current elicited with the same protocol during wash-out) elicited with a single test pulse to 0 mV was plotted against the applied concentration of the drug [C]. Concentration-response-curves were fitted using a Hill equation yielding the concentrations for half-maximum channel blockade (ICR50), and the respective Hill coefficients nH. (I)/(Imax) = (IC50^nH)/(IC50^nH + C^nH) [formula] (I)/(Imax) = a(ICR50^nH)/(ICR50^nH + C^nH) + (1-a)(ICI50^nH)/(ICI50^nH + C^nH) [formula]
# In the presence of Hexetidine, a 2-state Hill equation, Eq. 2, was applied, yielding the concentrations for half-maximum channel blockade in the inactivated state (ICI50), the respective Hill coefficient nH, and the respective amplitudes a and (1-a). The values previously obtained for ICR50 and nH were entered as constant factors.
# [2] = molecular target: T1, α-subunit of NaV1.2 neuronal sodium channels; test: Whole-cell voltage-clamp, double-pulse protocol: steady-state availability (fast inactivation), voltage shift and model-dependent affinity for inactivated channels; format: cell-based; parameters: expressed in transfected cells; host or cells: HEK 293, stably transfected with expression vector pRc/CMV and selected with G418; details: for nHI: Hill coefficient for inactivated state binding, model fit of Eq.4; for maximum shift in voltage-dependence of sodium channel availability: negative shift in midpoints of steady-state availability plots
# Description: Transfection was performed using calcium phosphate precipitation. […] Successful channel expression was verified electrophysiologically.
# The bath solution contained [mM] […] Patch electrodes contained [mM]
# Each cell was exposed to one test concentration only.
# Experiments with a rise in series resistance were rejected.
# Drug binding to inactivated channels is hardly accessible to a direct experimental approach, because inactivated channel states and all drug-bound channel states are unavailable on depolarization. A model-dependent method is generally applied to determine the affinity to fast-inactivated channel states. The voltage-dependence of the block and the affinity for fast-inactivated channel states was further assessed by applying a double-pulse protocol. Currents elicited by test pulses (Itest), starting from varying prepulse potentials (from -150 mV to -5 mV), normalized to the current elicited at the most hyperpolarized prepotential (-150 mV), represent the relative fraction of channels that have not been inactivated during the 100 ms inactivating prepulse. Boltzmann fits to the resulting current-voltage plots yield the membrane potential at half-maximum channel availability (V0.5) and the slope factor k, reflecting the 'voltage sensitivity' of inactivation gating (see Eq. 3). (I)/(Imax) = (1)/(1 + e^(((Vtest -V0.5)/(k)))) [formula]
# In control conditions, the parameters of the Boltzmann fits reflect the voltage-dependence of the distribution between resting and fast-inactivated channels (the availability curve). In the presence of the drug, the steady-state availability curve reflects drug association with rested and fast-inactivated channels, respectively. […] The underlying assumption is that the higher amount of channel blockade achieved with consecutive membrane depolarization is determined by the distribution of channels between resting and fast-inactivated states along the voltage axis (i.e. the channel availability curve), and by the different binding affinities of the blocking drug for the two channel states. The voltage shift ΔV0.5 in the presence of a drug would depend upon the drug concentration [C] according to Eq. 4. A fit of the model to ΔV0.5 plotted against concentration yields estimates for the concentration for half-maximum effect on fast-inactivated channels ICI50 and the Hill-type coefficient for drug binding to inactivated channels n: ΔV0.5 = k.ln[(1+([C])/(ICR50))/(1+(([C])^n)/(ICR50^n)) [formula]
# K and ICR50 are entered as constant factors. K is the slope factor of the availability curve in the controls and ICR50 is the concentration for half-maximum effect on resting channels, obtained at -100 mV holding potential.
# [3] = -100 mV, after application of higher concentrations (> EC50)
# [4] = ECR50, half maximum blocking concentration, resting channels, fit to concentration-response plots at -150 mV holding potential, HEK 293, 20°C
# [5] = estimate for inactivated channels, model fit of Eq.4 to concentration-dependence of the voltage shift in the availability curve, read-out: ECI50
# T1 sequence (P04775 whole entry): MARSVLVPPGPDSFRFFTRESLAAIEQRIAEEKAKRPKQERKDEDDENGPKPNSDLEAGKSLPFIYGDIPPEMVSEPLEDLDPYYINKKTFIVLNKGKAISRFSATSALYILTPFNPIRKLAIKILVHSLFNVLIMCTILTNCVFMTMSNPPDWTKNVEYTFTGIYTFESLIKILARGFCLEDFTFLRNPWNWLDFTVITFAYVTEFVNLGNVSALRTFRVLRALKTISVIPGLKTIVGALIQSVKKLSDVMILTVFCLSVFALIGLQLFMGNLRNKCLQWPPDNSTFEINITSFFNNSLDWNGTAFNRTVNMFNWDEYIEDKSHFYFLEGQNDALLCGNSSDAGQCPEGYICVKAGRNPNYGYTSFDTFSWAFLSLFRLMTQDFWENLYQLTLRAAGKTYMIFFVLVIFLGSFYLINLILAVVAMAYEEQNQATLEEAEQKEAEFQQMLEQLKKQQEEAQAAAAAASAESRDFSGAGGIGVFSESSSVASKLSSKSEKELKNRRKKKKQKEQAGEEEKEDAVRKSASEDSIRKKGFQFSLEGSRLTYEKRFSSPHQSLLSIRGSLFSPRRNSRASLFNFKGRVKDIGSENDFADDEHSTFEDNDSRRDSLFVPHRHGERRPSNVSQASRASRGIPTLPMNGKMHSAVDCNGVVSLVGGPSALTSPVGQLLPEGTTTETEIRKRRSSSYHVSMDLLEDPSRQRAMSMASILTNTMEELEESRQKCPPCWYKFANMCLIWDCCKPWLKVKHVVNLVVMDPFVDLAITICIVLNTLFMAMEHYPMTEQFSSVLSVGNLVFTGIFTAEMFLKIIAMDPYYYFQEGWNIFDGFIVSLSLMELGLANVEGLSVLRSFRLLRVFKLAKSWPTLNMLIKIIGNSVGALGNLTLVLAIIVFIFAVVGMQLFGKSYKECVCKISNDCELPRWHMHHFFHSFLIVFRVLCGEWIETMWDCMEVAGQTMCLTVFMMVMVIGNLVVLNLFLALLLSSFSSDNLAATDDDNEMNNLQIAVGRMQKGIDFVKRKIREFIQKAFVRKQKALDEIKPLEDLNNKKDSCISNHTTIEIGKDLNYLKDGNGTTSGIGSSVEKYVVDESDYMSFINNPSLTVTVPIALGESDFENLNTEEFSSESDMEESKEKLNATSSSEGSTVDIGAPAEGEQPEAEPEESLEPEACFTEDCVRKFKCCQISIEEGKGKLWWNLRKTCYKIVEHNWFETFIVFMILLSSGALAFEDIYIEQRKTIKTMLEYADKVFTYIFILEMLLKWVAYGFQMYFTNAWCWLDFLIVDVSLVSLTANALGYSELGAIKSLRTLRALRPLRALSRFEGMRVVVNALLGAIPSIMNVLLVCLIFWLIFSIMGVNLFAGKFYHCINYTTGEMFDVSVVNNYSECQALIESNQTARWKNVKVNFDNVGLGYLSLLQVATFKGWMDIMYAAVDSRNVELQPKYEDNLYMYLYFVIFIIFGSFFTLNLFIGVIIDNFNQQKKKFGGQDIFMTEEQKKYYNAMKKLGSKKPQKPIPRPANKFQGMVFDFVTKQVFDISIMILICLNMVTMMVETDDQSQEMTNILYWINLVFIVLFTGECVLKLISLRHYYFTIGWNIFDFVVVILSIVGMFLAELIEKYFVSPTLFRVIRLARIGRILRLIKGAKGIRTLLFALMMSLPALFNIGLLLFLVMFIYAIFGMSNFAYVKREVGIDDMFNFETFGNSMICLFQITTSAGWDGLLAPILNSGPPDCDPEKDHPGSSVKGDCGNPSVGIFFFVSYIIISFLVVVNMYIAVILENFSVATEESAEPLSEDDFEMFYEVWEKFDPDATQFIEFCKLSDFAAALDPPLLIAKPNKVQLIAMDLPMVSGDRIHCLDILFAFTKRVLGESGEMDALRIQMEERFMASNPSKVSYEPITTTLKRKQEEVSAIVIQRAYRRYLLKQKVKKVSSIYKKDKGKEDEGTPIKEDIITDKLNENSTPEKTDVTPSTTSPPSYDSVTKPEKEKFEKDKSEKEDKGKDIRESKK
"IC50 [1, 4]","IC50 [2, 5]",SMILES,"currents during wash-out, % of control current ([1]; -100 mV holding potential)","currents during wash-out, % of control current [1, 3]","currents during wash-out, % of control current ([1]; -150 mV holding potential)","currents during wash-out, % of control current ([1]; -70 mV holding potential)",sensitivity at -70 mV holding potential compared to hyperpolarized holding potentials [1],nHR ([1]; -150 mV holding potential),estimated affinity to inactivated channels compared to resting channels [2],nHI [2],maximum shift in voltage-dependence of sodium channel availability [2],further results
21 µM,0.3 µM,"CCCCCCc1ccc(O)cc1O [HR, hexylresorcinol]",94 ± 4%,90 ± 10%,95 ± 3%,,,,,,,
35 µM,0.05 µM,"CCCCC(CC)CN1CN(CC(CC)CCCC)CC(C)(N)C1 (stereo not drawn) [HT, hexetidine]",,,80 ± 8%,47 ± 11%,increased,1.08,several fold higher,0.5,-21 mV,"concentrations toxic for the seal in whole cell experiments [1]: above 30 µM; block of sodium inward currents ([1]; 100 µM, 3 experiments, not solely attributable to specific channel block): complete block; IC50 ([1]; estimated EC50, high-affinity binding site, biphasic concentration-response curve, two distinct binding sites): 0.001 µM; inhibition at 0.1 µM ([1]; read-out: block, % of the control current amplitude): 41 ± 13%"
,,"CCCCCc1ccc(C)cc1O [AMC, amylmetacresol]",91 ± 3%,94 ± 6%,90 ± 3%,64 ± 9%,,,,,,IC50 [1]: 55 µM; potency for block of resting sodium channels relative to lidocaine ([1]; depolarization from the resting state): around 10 fold; IC50 [2]: 22 µM; ECI50 lower than the ECR50 ([2]; inactivated versus resting channels): around 3 fold

SMILES,"IC50 [1, 4]","IC50 [2, 5]","currents during wash-out, % of control current ([1]; -100 mV holding potential)","currents during wash-out, % of control current [1, 3]","currents during wash-out, % of control current ([1]; -150 mV holding potential)","currents during wash-out, % of control current ([1]; -70 mV holding potential)",sensitivity at -70 mV holding potential compared to hyperpolarized holding potentials [1],nHR ([1]; -150 mV holding potential),estimated affinity to inactivated channels compared to resting channels [2],nHI [2],maximum shift in voltage-dependence of sodium channel availability [2],further results
"OCc1ccc(Cl)cc1Cl [DCBA, 2,4-dichlorobenzyl alcohol]",657 µM,5.2 µM,89 ± 5%,,88 ± 3%,63 ± 9%,slightly increased,3.5,several fold higher,0.4,-15 mV,"currents during wash-out, % of control current amplitude ([1]; -100 mV holding potential, after 300 and 500 µM DCBA): 71 ± 3%; blocking potency compared with lidocaine (words) ([1]; listed as Dichlorobenzyl alcohol): about as potent as lidocaine; blocking potency compared with lidocaine (words) ([1]; listed as dichlorobenzyl alcohol): comparable"
